# Source: publication PMC5218480 (PLoS ONE, 2017)
# System: MV-4-11 cells
# Experiment: Gene expression microarray analysis (Affymetrix PrimeView) and GSEA
# Type: cell-based, human
# Design: RFU PODN (11730768_x_at) / Fold change /veh PODN (11730768_x_at) / RFU LINC00158 (11744669_a_at) / Fold change /veh LINC00158 (11744669_a_at) / RFU DUSP10 (11751237_a_at) / Fold change /veh DUSP10 (11751237_a_at) / RFU ID3 (11757404_x_at) / Fold change /veh ID3 (11757404_x_at) / RFU PLEKHG5 (11737974_s_at) / Fold change /veh PLEKHG5 (11737974_s_at) / RFU LRRC4B (11730491_at) / Fold change /veh LRRC4B (11730491_at) / RFU GIMAP4 (11747438_a_at) / Fold change /veh GIMAP4 (11747438_a_at) / RFU KRT8 (11758183_x_at) / Fold change /veh KRT8 (11758183_x_at) / RFU CNN1 (11734310_a_at) / Fold change /veh CNN1 (11734310_a_at) / RFU VPS37D (11726825_at) / Fold change /veh VPS37D (11726825_at) / RFU C10orf10 (11716522_x_at) / Fold change /veh C10orf10 (11716522_x_at) / RFU KIR2DL2 /// KIR2DL4 /// KIR2DL5A /// KIR2DL5B /// KIR2DS1 /// KIR2DS2 /// KIR2DS3 /// KIR2DS4 /// KIR3DL3 /// KIR3DL3 /// KIR3DS1 (11738374_at) / Fold change /veh KIR2DL2 /// KIR2DL4 /// KIR2DL5A /// KIR2DL5B /// KIR2DS1 /// KIR2DS2 /// KIR2DS3 /// KIR2DS4 /// KIR3DL3 /// KIR3DL3 /// KIR3DS1 (11738374_at) / RFU C1QL1 (11718748_at) / Fold change /veh C1QL1 (11718748_at) / RFU TMPRSS4 (11747572_a_at) / Fold change /veh TMPRSS4 (11747572_a_at) / RFU HAMP (11756126_x_at) / Fold change /veh HAMP (11756126_x_at) / RFU RNFT2 (11725882_a_at) / Fold change /veh RNFT2 (11725882_a_at) / RFU NR4A2 (11747474_a_at) / Fold change /veh NR4A2 (11747474_a_at) / RFU ABCC12 (11746883_a_at) / Fold change /veh ABCC12 (11746883_a_at) / RFU TMEM136 (11760407_x_at) / Fold change /veh TMEM136 (11760407_x_at) / RFU CLDN22 /// WWC2 (11732394_at) / Fold change /veh CLDN22 /// WWC2 (11732394_at) / RFU HLA-DPB1 (11760878_x_at) / Fold change /veh HLA-DPB1 (11760878_x_at) / RFU SPINT1 (11716480_a_at) / Fold change /veh SPINT1 (11716480_a_at) / RFU GAP43 (11754022_s_at) / Fold change /veh GAP43 (11754022_s_at) / RFU A4GNT (11735810_at) / Fold change /veh A4GNT (11735810_at) / RFU PRB3 (11715151_x_at) / Fold change /veh PRB3 (11715151_x_at) / RFU TUBB4B (11761932_at) / Fold change /veh TUBB4B (11761932_at) / RFU CAPN14 (11732068_a_at) / Fold change /veh CAPN14 (11732068_a_at) / RFU TMCC2 (11721928_a_at) / Fold change /veh TMCC2 (11721928_a_at) / RFU IRGQ (11745062_a_at) / Fold change /veh IRGQ (11745062_a_at) / RFU FAM174B (11720279_a_at) / Fold change /veh FAM174B (11720279_a_at) / RFU TMPRSS4 (11748680_a_at) / Fold change /veh TMPRSS4 (11748680_a_at) / RFU FAM212B (11763350_a_at) / Fold change /veh FAM212B (11763350_a_at) / RFU PLEKHG5 (11743358_a_at) / Fold change /veh PLEKHG5 (11743358_a_at) / RFU ZSCAN30 (11745921_a_at) / Fold change /veh ZSCAN30 (11745921_a_at) / RFU CMKLR1 (11741424_a_at) / Fold change /veh CMKLR1 (11741424_a_at) / RFU LOC101060620 /// MAPK8IP1 (11723275_at) / Fold change /veh LOC101060620 /// MAPK8IP1 (11723275_at) / RFU SPTSSB (11747773_x_at) / Fold change /veh SPTSSB (11747773_x_at) / RFU PRSS12 (11739890_at) / Fold change /veh PRSS12 (11739890_at) / RFU BIN1 (11741810_x_at) / Fold change /veh BIN1 (11741810_x_at) / RFU WNT11 (11732464_a_at) / Fold change /veh WNT11 (11732464_a_at) / RFU C10orf10 (11716521_a_at) / Fold change /veh C10orf10 (11716521_a_at) / RFU C5orf56 (11738089_at) / Fold change /veh C5orf56 (11738089_at) / RFU CYB561 (11721691_x_at) / Fold change /veh CYB561 (11721691_x_at) / RFU ANKRD19P (11752326_a_at) / Fold change /veh ANKRD19P (11752326_a_at) / RFU OR2T12 /// OR2T33 /// OR2T8 (11738714_s_at) / Fold change /veh OR2T12 /// OR2T33 /// OR2T8 (11738714_s_at) / RFU VCAN (11748164_a_at) / Fold change /veh VCAN (11748164_a_at) / RFU JSRP1 (11732532_at) / Fold change /veh JSRP1 (11732532_at) / RFU KRTAP10-11 (11738290_x_at) / Fold change /veh KRTAP10-11 (11738290_x_at) / RFU MYO3A (11730013_a_at) / Fold change /veh MYO3A (11730013_a_at) / RFU EBF3 (11725865_a_at) / Fold change /veh EBF3 (11725865_a_at) / RFU CAMK2N1 (11719241_x_at) / Fold change /veh CAMK2N1 (11719241_x_at) / RFU C5orf56 (11738088_a_at) / Fold change /veh C5orf56 (11738088_a_at) / RFU OLFML3 (11715873_a_at) / Fold change /veh OLFML3 (11715873_a_at) / RFU LOC100653217 /// NTM (11731650_a_at) / Fold change /veh LOC100653217 /// NTM (11731650_a_at) / RFU MAPK11 (11762145_a_at) / Fold change /veh MAPK11 (11762145_a_at) / RFU FIZ1 (11724087_x_at) / Fold change /veh FIZ1 (11724087_x_at) / RFU OASL (11726364_x_at) / Fold change /veh OASL (11726364_x_at) / RFU SOX15 (11748057_x_at) / Fold change /veh SOX15 (11748057_x_at) / RFU CD79A (11719716_a_at) / Fold change /veh CD79A (11719716_a_at) / RFU HIST1H1D (11736915_at) / Fold change /veh HIST1H1D (11736915_at) / RFU CASKIN2 (11723855_a_at) / Fold change /veh CASKIN2 (11723855_a_at) / RFU LOC730098 (11760151_x_at) / Fold change /veh LOC730098 (11760151_x_at) / RFU OR4N2 (11742367_at) / Fold change /veh OR4N2 (11742367_at) / RFU PRRT2 (11749266_a_at) / Fold change /veh PRRT2 (11749266_a_at) / RFU SNX32 (11753110_a_at) / Fold change /veh SNX32 (11753110_a_at) / RFU CDHR5 (11726645_a_at) / Fold change /veh CDHR5 (11726645_a_at) / RFU RCAN1 (11760418_a_at) / Fold change /veh RCAN1 (11760418_a_at) / RFU FAM167A (11723789_a_at) / Fold change /veh FAM167A (11723789_a_at) / RFU FAM26E (11764081_at) / Fold change /veh FAM26E (11764081_at) / RFU ISYNA1 (11749810_s_at) / Fold change /veh ISYNA1 (11749810_s_at) / RFU ACY1 (11761880_at) / Fold change /veh ACY1 (11761880_at) / RFU 11764098_at / Fold change /veh 11764098_at / RFU SAMD14 (11745864_x_at) / Fold change /veh SAMD14 (11745864_x_at) / RFU NPB (11741838_a_at) / Fold change /veh NPB (11741838_a_at) / RFU TMPRSS6 (11731388_a_at) / Fold change /veh TMPRSS6 (11731388_a_at) / RFU KRTAP10-2 (11738614_at) / Fold change /veh KRTAP10-2 (11738614_at) / RFU ARHGAP8 /// PRR5-ARHGAP8 (11727945_x_at) / Fold change /veh ARHGAP8 /// PRR5-ARHGAP8 (11727945_x_at) / RFU KRTAP5-7 /// NADSYN1 (11734609_at) / Fold change /veh KRTAP5-7 /// NADSYN1 (11734609_at) / RFU RASL12 (11751679_a_at) / Fold change /veh RASL12 (11751679_a_at) / RFU CDKN2B (11736163_a_at) / Fold change /veh CDKN2B (11736163_a_at) / RFU PRF1 (11729649_at) / Fold change /veh PRF1 (11729649_at) / RFU, ZNF638 /// ZNF638-IT1 / Fold change vs veh, ZNF638 /// ZNF638-IT1 / RFU, PANK3 / Fold change vs veh, PANK3 / RFU, SH3YL1 / Fold change vs veh, SH3YL1 / RFU, ZEB2 / Fold change vs veh, ZEB2 / RFU, NRIP1 / Fold change vs veh, NRIP1 / RFU, PTTG1IP / Fold change vs veh, PTTG1IP / RFU, CAPN2 / Fold change vs veh, CAPN2 / RFU, MED14 / Fold change vs veh, MED14 / RFU, SNORA58 / Fold change vs veh, SNORA58 / RFU, C1orf63 / Fold change vs veh, C1orf63 / RFU, LRRFIP1 / Fold change vs veh, LRRFIP1 / RFU, NDUFAF7 / Fold change vs veh, NDUFAF7 / RFU, SLC12A2 / Fold change vs veh, SLC12A2 / RFU, IBTK / Fold change vs veh, IBTK / RFU, ESF1 / Fold change vs veh, ESF1 / Fold change vs veh, TMEM50B / RFU, TAOK1 / Fold change vs veh, TAOK1 / RFU, ACBD3 / Fold change vs veh, ACBD3 / RFU, TMA16 / Fold change vs veh, TMA16 / RFU, RWDD3 / Fold change vs veh, RWDD3 / RFU, BCAT1 / Fold change vs veh, BCAT1 / RFU, EDEM3 / Fold change vs veh, EDEM3 / RFU, TMEM33 / Fold change vs veh, TMEM33 / RFU, WDR75 / Fold change vs veh, WDR75 / RFU, AHCTF1 / Fold change vs veh, AHCTF1 / RFU, TFRC / Fold change vs veh, TFRC / RFU, ZDHHC17 / Fold change vs veh, ZDHHC17 / RFU, NOM1 / Fold change vs veh, NOM1 / RFU, ARL8B / Fold change vs veh, ARL8B / RFU, ZBTB11 / Fold change vs veh, ZBTB11 / RFU, TAMM41 / Fold change vs veh, TAMM41 / RFU, KIAA1704 /// LOC100996395 / Fold change vs veh, KIAA1704 /// LOC100996395 / RFU, ING1 / Fold change vs veh, ING1 / RFU, TRMT61B / Fold change vs veh, TRMT61B / RFU, FUBP3 / Fold change vs veh, FUBP3 / RFU, TP53 / Fold change vs veh, TP53 / RFU, TNKS2 / Fold change vs veh, TNKS2 / RFU, ZFP14 / Fold change vs veh, ZFP14 / RFU, ACTR2 / Fold change vs veh, ACTR2 / RFU, PPP3R1 / Fold change vs veh, PPP3R1 / RFU, PIK3R1 / Fold change vs veh, PIK3R1 / RFU, HNRNPA1 / Fold change vs veh, HNRNPA1 / RFU, RNF170 / Fold change vs veh, RNF170 / RFU, ZNF28 / Fold change vs veh, ZNF28 / RFU, RNGTT / Fold change vs veh, RNGTT / RFU, OGT / Fold change vs veh, OGT / RFU, BRD1 / Fold change vs veh, BRD1 / RFU, MARS / Fold change vs veh, MARS / RFU, ZNF655 / Fold change vs veh, ZNF655 / RFU, FAHD1 / Fold change vs veh, FAHD1 / RFU, BDP1 / Fold change vs veh, BDP1 / RFU, LRRCC1 / Fold change vs veh, LRRCC1 / RFU, ARID1A / Fold change vs veh, ARID1A / RFU, ZNF146 / Fold change vs veh, ZNF146 / RFU, ZNF330 / Fold change vs veh, ZNF330 / RFU, GPN3 / Fold change vs veh, GPN3 / RFU, C9orf123 / Fold change vs veh, C9orf123 / RFU, N4BP2L2 / Fold change vs veh, N4BP2L2 / RFU, ARFIP1 / Fold change vs veh, ARFIP1 / RFU, FAM179B / Fold change vs veh, FAM179B / RFU, BCL10 / Fold change vs veh, BCL10 / RFU, UHRF1BP1L / Fold change vs veh, UHRF1BP1L / RFU, BET1 / Fold change vs veh, BET1 / RFU, CNOT2 / Fold change vs veh, CNOT2 / RFU, ZNF268 / Fold change vs veh, ZNF268 / Fold change vs veh, ZNF507 / RFU, DGCR2 / Fold change vs veh, DGCR2 / RFU, WDSUB1 / Fold change vs veh, WDSUB1 / Fold change vs veh, HSP90B1 /// MIR3652 / RFU, ADSS / Fold change vs veh, ADSS / RFU, GK / Fold change vs veh, GK / RFU, ZNF148 / Fold change vs veh, ZNF148 / RFU, TAF9 / Fold change vs veh, TAF9 / RFU, SLC1A5 / Fold change vs veh, SLC1A5 / RFU, SLMO2 / Fold change vs veh, SLMO2 / RFU, ABCC4 / Fold change vs veh, ABCC4 / RFU, LOC101060439 /// RAP1B / Fold change vs veh, LOC101060439 /// RAP1B / RFU, RFX7 / Fold change vs veh, RFX7 / RFU, GTPBP10 / Fold change vs veh, GTPBP10 / RFU, CNEP1R1 / Fold change vs veh, CNEP1R1 / RFU, BIVM-ERCC5 /// ERCC5 / Fold change vs veh, BIVM-ERCC5 /// ERCC5 / RFU, ILF3 / Fold change vs veh, ILF3 / RFU 11762660_at / Fold change /veh 11762660_at / RFU VCAN (11757783_s_at) / Fold change /veh VCAN (11757783_s_at) / RFU DDX43 (11728927_at) / Fold change /veh DDX43 (11728927_at) / RFU KRT8 (11758188_x_at) / Fold change /veh KRT8 (11758188_x_at) / RFU NKD1 (11759106_at) / Fold change /veh NKD1 (11759106_at) / RFU SRD5A1 (11742802_a_at) / Fold change /veh SRD5A1 (11742802_a_at) / RFU TPSAB1 /// TPSB2 (11721975_s_at) / Fold change /veh TPSAB1 /// TPSB2 (11721975_s_at) / RFU GSTM3 (11746129_a_at) / Fold change /veh GSTM3 (11746129_a_at) / RFU IL23R (11737362_x_at) / Fold change /veh IL23R (11737362_x_at) / RFU TMEM51 (11727254_a_at) / Fold change /veh TMEM51 (11727254_a_at) / RFU PIWIL2 (11732686_x_at) / Fold change /veh PIWIL2 (11732686_x_at) / RFU ORM1 (11744905_x_at) / Fold change /veh ORM1 (11744905_x_at) / RFU CCDC152 (11743942_at) / Fold change /veh CCDC152 (11743942_at) / RFU ECM1 (11717891_a_at) / Fold change /veh ECM1 (11717891_a_at) / RFU IL23R (11748794_a_at) / Fold change /veh IL23R (11748794_a_at) / RFU TNFAIP8L3 (11732012_x_at) / Fold change /veh TNFAIP8L3 (11732012_x_at) / RFU MBOAT4 (11741988_at) / Fold change /veh MBOAT4 (11741988_at) / RFU 11764193_at / Fold change /veh 11764193_at / RFU TMEM53 (11763286_at) / Fold change /veh TMEM53 (11763286_at) / RFU MAGEB2 (11727129_at) / Fold change /veh MAGEB2 (11727129_at) / RFU TMEM200A (11744735_a_at) / Fold change /veh TMEM200A (11744735_a_at) / RFU CCDC152 (11751479_a_at) / Fold change /veh CCDC152 (11751479_a_at) / RFU FAM211A (11726209_a_at) / Fold change /veh FAM211A (11726209_a_at) / RFU RGS16 (11746705_a_at) / Fold change /veh RGS16 (11746705_a_at) / RFU VCAN (11755009_s_at) / Fold change /veh VCAN (11755009_s_at) / RFU RHOB (11743442_s_at) / Fold change /veh RHOB (11743442_s_at) / RFU RGS16 (11720943_a_at) / Fold change /veh RGS16 (11720943_a_at) / RFU RGS16 (11720944_at) / Fold change /veh RGS16 (11720944_at) / RFU, VPS4B / Fold change vs veh, VPS4B / RFU, CREB1 / Fold change vs veh, CREB1 / RFU, DNAJC13 / Fold change vs veh, DNAJC13 / RFU, GNAQ / Fold change vs veh, GNAQ / RFU, CDK5R1 / Fold change vs veh, CDK5R1 / RFU, ZRANB3 / Fold change vs veh, ZRANB3 / RFU, CUL4A / Fold change vs veh, CUL4A / RFU, CCNY / Fold change vs veh, CCNY / RFU, UFL1 / Fold change vs veh, UFL1 / RFU, COG3 / Fold change vs veh, COG3 / RFU, DIAPH2 / Fold change vs veh, DIAPH2 / RFU, SKA2 / Fold change vs veh, SKA2 / RFU, AFF3 / Fold change vs veh, AFF3 / RFU, LMF1 / Fold change vs veh, LMF1 / RFU, IPO11 / Fold change vs veh, IPO11 / RFU, DFFB / Fold change vs veh, DFFB / RFU, FOXP1 / Fold change vs veh, FOXP1 / RFU, CARD8 / Fold change vs veh, CARD8 / RFU, STRN3 / Fold change vs veh, STRN3 / RFU, ADK / Fold change vs veh, ADK / RFU, RASSF2 / Fold change vs veh, RASSF2 / RFU, WIPF1 / Fold change vs veh, WIPF1 / RFU, LARP1B / Fold change vs veh, LARP1B / RFU, RASA1 / Fold change vs veh, RASA1 / RFU, RB1 / Fold change vs veh, RB1 / RFU, PPFIA1 / Fold change vs veh, PPFIA1 / RFU, MAT2A / Fold change vs veh, MAT2A / RFU, CCT5 / Fold change vs veh, CCT5 / RFU, WDR92 / Fold change vs veh, WDR92 / RFU, CUX1 / Fold change vs veh, CUX1 / RFU, TTC7A / Fold change vs veh, TTC7A / RFU, TMEM135 / Fold change vs veh, TMEM135 / RFU, DEPTOR / Fold change vs veh, DEPTOR / RFU, CPM / Fold change vs veh, CPM / RFU, DNAJB6 / Fold change vs veh, DNAJB6 / RFU, CACNA2D3 / Fold change vs veh, CACNA2D3 / RFU, DTX4 / Fold change vs veh, DTX4 / RFU, TFCP2 / Fold change vs veh, TFCP2 / RFU, GMCL1 /// GMCL1P1 / Fold change vs veh, GMCL1 /// GMCL1P1 / RFU, AEBP2 / Fold change vs veh, AEBP2 / RFU, SNHG1 /// SNORD22 /// SNORD25 /// SNORD26 /// SNORD27 /// SNORD28 /// SNORD29 /// SNORD31 / Fold change vs veh, SNHG1 /// SNORD22 /// SNORD25 /// SNORD26 /// SNORD27 /// SNORD28 /// SNORD29 /// SNORD31 / Fold change (Aza/veh), C12orf56 (ProbeSet 11735607_a_at) / Fold change (ACY-1035/veh), C12orf56 (ProbeSet 11735607_a_at) / Fold change (Aza/veh), FGFR1OP (ProbeSet 11751329_s_at) / Fold change (ACY-1035/veh), FGFR1OP (ProbeSet 11751329_s_at) / Fold change (Aza/veh), VPS36 (ProbeSet 11739960_a_at) / Fold change (ACY-1035/veh), VPS36 (ProbeSet 11739960_a_at) / RFU SYPL1 (11715823_x_at) / Fold change /veh SYPL1 (11715823_x_at) / RFU IGFBP7 (11715501_s_at) / Fold change /veh IGFBP7 (11715501_s_at) / RFU REEP3 (11722064_at) / Fold change /veh REEP3 (11722064_at) / RFU IGLL1 (11728026_x_at) / Fold change /veh IGLL1 (11728026_x_at): dose or concentration left out as unconfirmed
# Conditions: MV-4-11 cells, 48 hours
structure (smiles),measurement,value
Nc1ncn([C@@H]2O[C@H](CO)[C@@H](O)[C@H]2O)c(=O)n1 [azacitidine],RFU PODN (11730768_x_at),27.35 RFU
